How the values were obtained:
[1] = test system: NQO1 activity in Hepa1c1c7 cells; assay: NAD(P)H: quinone oxidoreductase-1 (NQO1) enzyme induction assay (in vitro); type: cell-based, mouse; conditions: Mus musculus, Hepa-1c1c7, NQO1 activity upon addition of 400 nM of test compound, about 48 hr, ratio from the base without the compound
Protocol: Experimental Example 2: NAD(P)H: Quinone Oxidoreductase-1 (NQO1) Enzyme Induction Assay (In Vitro)
The NQO1 assay was performed based on a previous report (Methods in Enzymology 2004; 382: 243-258). Hepa1c1c7 cells (mouse hepatocyte cell line, ATCC, cat. no. CRL-2026) were cultured in D-MEM medium containing 10% FBS and 1% penicillin/streptomycin (5% CO2, 37° C.), and seeded into 96-well plates (Corning REF. 353072) at 1×10^4 cells/well. A portion of the wells were prepared with medium only for background measurement without seeding cells. The next day, 400 nM of the test compound (0.004% of the final concentration in DMSO) dissolved in DMSO was added thereto, and the wells were incubated for about 48 hr. A well without adding the test compound was prepared for base activity assay in part.
Cell lysate (solution containing 0.8% digitonin, 2 mM EDTA), reaction solution (solution containing 25 mM Tris-HCl, 0.07% albumin, 0.01% Tween-20, 2 U/mL glucose-6-phosphate dehydrogenase, 5 μM flavin adenine dinucleotide, 1 μM glucose-6-phosphate, 30 μM nicotinamide adenine dinucleotide phosphate, 0.03% 3-(4,5-dimethyl-2-thiazolyl)-2,5-diphenyltetrazolium bromide (MTT), and 50 μM menadione), stop solution (solution containing 0.3 mM dicoumarol and 5 mM potassium dihydrogen phosphate, pH 7.4) were prepared. After the medium was removed, 50 μL of the cell lysate was added and incubated at 37° C. for 10 minutes, followed by shaking at room temperature for 10 minutes. 200 μL of reaction solution was added thereto, and allowed to stand for 5 minutes at room temperature. 50 μL of the stop solution was added thereto, and absorbance was measured at 610 nm on a SpectraMax PLUS384 (Molecular devices) or POWERSCAN HT (DS Pharma Biomedical). The test results were analyzed in Excel, and the NQO1 activity upon addition of 400 nM of test compound was calculated as a ratio from the base without the compound.
The results of each test compound in this test are shown in the following Table 2 (A: 5<NQO1 activity ratio, B: 3<NQO1 activity ratio 5, C: 1.5<NQO1 activity ratio 3).

[2] = biological target: GST-fused human Keap1 (amino acid residues: 325-642) protein (Homo sapiens (Human), UniProt Q14145); assay: FP assay (in vitro): inhibition of binding between Nrf2 and Keap1 by fluorescence polarization; conditions: 20 nM GST-fused human Keap1, 10 nM FITC-labeled Nrf2 peptide, 2 hr at room temperature
Sequence of GST-fused human Keap1 (amino acid residues: 325-642) protein (Q14145 325-624 limits assumed): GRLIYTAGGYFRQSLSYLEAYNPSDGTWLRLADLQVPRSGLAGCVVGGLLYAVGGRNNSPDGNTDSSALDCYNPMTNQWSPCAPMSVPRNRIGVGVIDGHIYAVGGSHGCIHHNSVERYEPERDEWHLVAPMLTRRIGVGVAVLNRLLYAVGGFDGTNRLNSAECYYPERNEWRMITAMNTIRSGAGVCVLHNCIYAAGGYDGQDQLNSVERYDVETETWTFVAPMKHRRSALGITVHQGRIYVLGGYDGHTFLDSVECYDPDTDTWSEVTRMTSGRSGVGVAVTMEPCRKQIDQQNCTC
Protocol: Experimental Example 1: FP Assay (In Vitro)
The inhibitory activity of test compounds on the binding between Nrf2 and Keap1 was determined by fluorescence polarization. A solution of 50 mM Tris-HCl pH.8.0 (NACALAI, REF: 06938-15), and 5 mM DTT (SIGMA-ALDRICH, REF: 646563-10X.5 mL) was used as a buffer solution. 8 μL of a buffer solution containing 40 nM GST-fused human Keap1 (amino acid residues: 325-642) protein (Protein tech, REF: Ag0779) was taken in a black 384-well plate (final concentration 20 nM), and 4 μL of the test compound solution prepared to each concentration in buffer solution was added thereto. A well containing a portion of the buffer solution without Keap1 was placed as a negative control. A well with no compound was used as a positive control. 40 nM of FITC-labeled Nrf2 peptide (FITC-X-LQLDEETGEFLPIQ (X=ε-Acp), Peptide Institute Inc.) was added thereto (10 nM final concentration). The wells were incubated at room temperature for 2 hr, and then fluorescence polarization was measured with a plate reader SPECTRAMAX Paradigm (Molecular devices) at excitation wavelength of 485 nm and fluorescence wavelength of 535 nm. The fluorescence polarization of the negative control was set to 100% inhibition and that of the positive control to 0% inhibition, and the inhibitory rate upon addition of the test compound was calculated using the following formula.

IC50 [2] | SMILES | fold induction at 0.4 µM [1]
≤ 10 nM | Cc1c([C@H](CC(=O)O)c2cc(CN3Cc4nc(O)ccc4O[C@H](C(F)(F)F)C3)c3sccc3c2)cnc2c1nnn2C [Example 46, (3R)-3-(3,7-Dimethyl-3H-[1,2,3]triazolo[4,5-b]pyridin-6-yl)-3-(7-{[(2S)-7-hydroxy-2-(trifluoromethyl)-2,3-dihydropyrido[2,3-f][1,4]oxazepin-4(5H)-yl]methyl}-1-benzothiophen-5-yl)propanoic acid] | 3 to 5
10 to 30 nM | CC[C@@H]1CN(Cc2cc([C@H](CC(=O)O)c3cc(C4CC4)c4c(nnn4C)c3C)cc3ccsc23)Cc2nc(O)ccc2O1 [Example 36, (3S)-3-(7-Cyclopropyl-1,4-dimethyl-1H-benzotriazol-5-yl)-3-(7-{[(2R)-2-ethyl-7-hydroxy-2,3-dihydropyrido[2,3-f][1,4]oxazepin-4(5H)-yl]methyl}-1-benzothiophen-5-yl)propanoic acid] | > 5
10 to 30 nM | CC[C@@H]1CN(Cc2cc([C@H](CC(=O)O)c3ccc4c(nnn4C)c3C)cc3ccsc23)Cc2nc(O)ccc2O1 [Example 1, (3S)-3-(1,4-Dimethyl-1H-benzotriazol-5-yl)-3-(7-{[(2R)-2-ethyl-7-hydroxy-2,3-dihydropyrido[2,3-f][1,4]oxazepin-4(5H)-yl]methyl}-1-benzothiophen-5-yl)propanoic acid] | > 5
10 to 30 nM | Cc1c([C@@H](CC(=O)O)c2cc(CN3Cc4c(ccnc4O)OC4(CC4)C3)c3sccc3c2)ccc2c1nnn2C [Example 82, (3S)-3-(1,4-Dimethyl-1H-benzotriazol-5-yl)-3-{7-[(6′-hydroxy-3′H-spiro[cyclopropane-1,2′-pyrido[3,4-f][1,4]oxazepin]-4′(5′H)-yl)methyl]-1-benzothiophen-5-yl}propanoic acid] | 3 to 5
30 to 300 nM | Cc1c([C@@H](CC(=O)O)c2cc(CN3Cc4nc(O)ccc4O[C@@H](C4CC4)C3)c3sccc3c2)ccc2c1nnn2C [Example 7, (3S)-3-(7-{[(2S)-2-Cyclopropyl-7-hydroxy-2,3-dihydropyrido[2,3-f][1,4]oxazepin-4(5H)-yl]methyl}-1-benzothiophen-5-yl)-3-(1,4-dimethyl-1H-benzotriazol-5-yl)propanoic acid] | > 5
10 to 30 nM | CC[C@@H]1CN(Cc2cc([C@@H](CC(=O)O)c3cc(C(F)(F)F)c4c(nnn4C)c3C)cc3ccsc23)Cc2nc(O)ccc2O1 [Example 29, (3R)-3-[1,4-Dimethyl-7-(trifluoromethyl)-1H-benzotriazol-5-yl]-3-(7-{[(2R)-2-ethyl-7-hydroxy-2,3-dihydropyrido[2,3-f][1,4]oxazepin-4(5H)-yl]methyl}-1-benzothiophen-5-yl)propanoic acid] | > 5
10 to 30 nM | CC[C@@H]1CN(Cc2cc([C@H](CC(=O)O)c3ccc4c(nnn4CC(C)(C)O)c3C)cc3ccsc23)Cc2nc(O)ccc2O1 [Example 20, (3S)-3-(7-{[(2R)-2-Ethyl-7-hydroxy-2,3-dihydropyrido[2,3-f][1,4]oxazepin-4(5H)-yl]methyl}-1-benzothiophen-5-yl)-3-[1-(2-hydroxy-2-methylpropyl)-4-methyl-1H-benzotriazol-5-yl]propanoic acid] | 3 to 5

Second part, the compound before the results:

SMILES | IC50 [2] | fold induction at 0.4 µM [1]
CC[C@H]1Cc2ccc(O)nc2CN(Cc2cc([C@H](CC(=O)O)c3cnc4c(nnn4C)c3C)cc3ccsc23)C1 [Example 81, (3S)-3-(3,7-Dimethyl-3H-[1,2,3]triazolo[4,5-b]pyridin-6-yl)-3-(7-{[(6S)-6-ethyl-2-hydroxy-5,6,7,9-tetrahydro-8H-pyrido[2,3-c]azepin-8-yl]methyl}-1-benzothiophen-5-yl)propanoic acid] | 10 to 30 nM | > 5
CC[C@H]1Cc2ccc(O)nc2CN(Cc2cc([C@@H](CC(=O)O)c3cnc4c(nnn4C)c3C)cc3ccsc23)C1 [Example 80, (3R)-3-(3,7-Dimethyl-3H-[1,2,3]triazolo[4,5-b]pyridin-6-yl)-3-(7-{[(6S)-6-ethyl-2-hydroxy-5,6,7,9-tetrahydro-8H-pyrido[2,3-c]azepin-8-yl]methyl}-1-benzothiophen-5-yl)propanoic acid] | 10 to 30 nM | > 5
CC[C@@H]1CN(Cc2cc(C(CC(=O)O)c3ccc4c(nnn4C)c3C)cc3ccsc23)Cc2nc(F)c(O)cc2O1 (stereo partly drawn) [Example 74, 3-(1,4-Dimethyl-1H-benzotriazol-5-yl)-3-(7-{[(2R)-2-ethyl-7-fluoro-8-hydroxy-2,3-dihydropyrido[2,3-f][1,4]oxazepin-4(5H)-yl]methyl}-1-benzothiophen-5-yl)propanoic acid] | 10 to 30 nM | > 5
Cc1c([C@H](CC(=O)O)c2cc(CN3Cc4nc(O)ccc4O[C@@H](C4CC4)C3)c3sccc3c2)ccc2c1nnn2C [Example 8, (3R)-3-(7-{[(2S)-2-Cyclopropyl-7-hydroxy-2,3-dihydropyrido[2,3-f][1,4]oxazepin-4(5H)-yl]methyl}-1-benzothiophen-5-yl)-3-(1,4-dimethyl-1H-benzotriazol-5-yl)propanoic acid] | 30 to 300 nM | 3 to 5
CC[C@@H]1CN(Cc2cc([C@@H](CC(=O)O)c3cnc4c(nnn4C)c3C)cc3ccsc23)Cc2nc(O)ccc2O1 [Example 23, (3R)-3-(3,7-Dimethyl-3H-[1,2,3]triazolo[4,5-b]pyridin-6-yl)-3-(7-{[(2R)-2-ethyl-7-hydroxy-2,3-dihydropyrido[2,3-f][1,4]oxazepin-4(5H)-yl]methyl}-1-benzothiophen-5-yl)propanoic acid] | 30 to 300 nM | 3 to 5
CC[C@H]1Cc2cccnc2CN(Cc2cc(C(CC(=O)O)c3ccc4c(nnn4C)c3C)cc3ccsc23)C1 (stereo partly drawn) [Example 64, 3-(1,4-Dimethyl-1H-benzotriazol-5-yl)-3-(7-{[(6S)-6-ethyl-5,6,7,9-tetrahydro-8H-pyrido[2,3-c]azepin-8-yl]methyl}-1-benzothiophen-5-yl)propanoic acid] | 30 to 300 nM | > 5
Cc1c([C@@H](CC(=O)O)c2cc(CN3Cc4nc(O)ccc4O[C@H](C)C3)c3sccc3c2)ccc2c1nnn2C [Example 15, (3S)-3-(1,4-Dimethyl-1H-benzotriazol-5-yl)-3-(7-{[(2R)-7-hydroxy-2-methyl-2,3-dihydropyrido[2,3-f][1,4]oxazepin-4(5H)-yl]methyl}-1-benzothiophen-5-yl)propanoic acid] | 10 to 30 nM | > 5
Cc1c([C@@H](CC(=O)O)c2cc(CN3Cc4cnc(O)cc4OC4(CC4)C3)c3sccc3c2)ccc2c1nnn2C [Example 79, (3S)-3-(1,4-Dimethyl-1H-benzotriazol-5-yl)-3-{7-[(8′-hydroxy-3′H-spiro[cyclopropane-1,2′-pyrido[3,4-f][1,4]oxazepin]-4′ (5′H)-yl)methyl]-1-benzothiophen-5-yl}propanoic acid] | 10 to 30 nM | 3 to 5
CC[C@@H]1CN(Cc2cc([C@H](CC(=O)O)c3ccc4c(nnn4C)c3C)cc3ccsc23)Cc2nc(NC)ccc2O1 [Example 78, (3S)-3-(1,4-Dimethyl-1H-benzotriazol-5-yl)-3-(7-{[(2R)-2-ethyl-7-(methylamino)-2,3-dihydropyrido[2,3-f][1,4]oxazepin-4(5H)-yl]methyl}-1-benzothiophen-5-yl)propanoic acid] | ≤ 10 nM | 3 to 5

Source: patent US20250296939A1, “BENZOTHIOPHENE COMPOUND” (Kyoto Pharmaceutical Industries, Ltd., priority 2022, published 2025)
